Drawing on US10208021B2, “Substituted tetrahydroisoquinoline compounds as factor XIa inhibitors” (BRISTOL-MYERS SQUIBB COMPANY, priority 2011, dated 2019), this text covers Ki for 36 molecules.

In general, Ki refers to a measure of affinity in units of concentration, obtained from inhibition or displacement.

For the first test, the target named is purified human Factor XIa (Homo sapiens (Human), UniProt P03951). In words: Factor XIa chromogenic substrate (S-2366) inhibition assay. Type of test: biochemical. Particulars: substrate S-2366, Table 1. The method, then: The effectiveness of compounds of the present invention as inhibitors of the coagulation factors XIa, VIIa, IXa, Xa, XIIa, plasma kallikrein or thrombin, can be determined using a relevant purified serine protease, respectively, and an appropriate synthetic substrate. The rate of hydrolysis of the chromogenic or fluorogenic substrate by the relevant serine protease was measured both in the absence and presence of compounds of the present invention. […] A decrease in the rate of absorbance or fluorescence change in the presence of inhibitor is indicative of enzyme inhibition. Such methods are known to one skilled in the art. The results of this assay are expressed as the inhibitory constant, Ki. […] JT Baker or Fisher Scientific). […] Values of Ki were determined by allowing the protease to react with the substrate in the presence of the inhibitor. Reactions were allowed to go for periods of 20-180 minutes (depending on the protease) and the velocities (rate of absorbance or fluorescence change versus time) were measured.
Sequence of purified human Factor XIa (P03951 388-625): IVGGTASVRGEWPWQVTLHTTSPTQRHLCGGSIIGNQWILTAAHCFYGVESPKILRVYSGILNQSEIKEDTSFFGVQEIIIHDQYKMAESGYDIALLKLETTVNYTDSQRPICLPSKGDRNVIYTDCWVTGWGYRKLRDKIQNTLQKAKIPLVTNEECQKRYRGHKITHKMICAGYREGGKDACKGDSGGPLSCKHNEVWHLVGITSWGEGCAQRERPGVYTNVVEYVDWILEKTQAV
Sequence of purified human Factor XIa (P03951 19-387 partner): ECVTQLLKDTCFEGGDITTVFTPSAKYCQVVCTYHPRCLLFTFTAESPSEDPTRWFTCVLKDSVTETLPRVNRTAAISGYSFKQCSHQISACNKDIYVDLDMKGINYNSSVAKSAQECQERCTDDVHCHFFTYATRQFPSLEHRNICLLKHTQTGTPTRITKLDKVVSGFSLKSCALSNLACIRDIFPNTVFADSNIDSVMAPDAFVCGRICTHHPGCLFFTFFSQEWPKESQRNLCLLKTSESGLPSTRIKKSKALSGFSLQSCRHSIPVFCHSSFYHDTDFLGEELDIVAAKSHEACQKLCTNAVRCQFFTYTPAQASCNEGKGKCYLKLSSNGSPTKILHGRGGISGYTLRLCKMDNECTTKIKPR
Consider `N#Cc1ccc(Cl)c(F)c1/C=C/C(=O)N1CCc2c(cccc2N2CCC(N3CCCC3)CC2)C1C(=O)Nc1ccc(C(=O)O)cc1` (racemic) [Example 155], for which the Ki was below 5 nM.

Molecule `COC(=O)c1ccc(NC(=O)C2c3cccc(N4CCC(N5CCCC5)CC4)c3CCN2C(=O)/C=C/c2c(C(C)=O)ccc(Cl)c2F)cc1` (racemic) [Example 175] yielded a Ki below 5 nM.

Molecule `CC(=O)c1ccc(Cl)c(F)c1/C=C/C(=O)N1CCc2c(cccc2N2CCS(=O)(=O)CC2)C1C(=O)Nc1ccc(C(=O)O)cc1` (racemic) [Example 215] returned a Ki below 5 nM.

`O=C(O)c1ccc(NC(=O)C2c3cccc(N4CCC(N5CCNCC5)CC4)c3CCN2C(=O)/C=C/c2c(C(F)(F)F)ccc(Cl)c2F)cc1` (racemic) [Example 228] had a Ki below 5 nM.

Staying with this test, now noted: substrate S-2366, activity ranges, Table A.
The molecule `CC(=O)OC1CCN(c2cccc3c2CCN(C(=O)/C=C/c2c(-n4cnnn4)ccc(Cl)c2F)C3C(=O)Nc2ccc(C(=O)O)cc2)CC1` (racemic) [Example 137] showed an inhibitory constant (Ki) below 5 nM.

`O=C(O)c1ccc(NC(=O)C2c3cccc(N4CCC(N5CCOCC5)CC4)c3CCN2C(=O)/C=C/c2c(-n3cnnn3)ccc(Cl)c2F)cc1` (racemic) [Example 138] displayed a Ki below 5 nM.

The molecule `O=C(O)c1ccc(NC(=O)C2c3cccc(N4CCC(C(=O)N5CCOCC5)CC4)c3CCN2C(=O)/C=C/c2c(-n3cnnn3)ccc(Cl)c2F)cc1` (racemic) [Example 140] displayed a Ki below 5 nM.

In turn, `O=C(O)c1ccc(NC(=O)C2c3cccc(N4CCC5(CC4)OCCO5)c3CCN2C(=O)/C=C/c2c(-n3cnnn3)ccc(Cl)c2F)cc1` (racemic) [Example 142] came in with a Ki below 5 nM.

As to `O=C1CCC2(CCN(c3cccc4c3CCN(C(=O)/C=C/c3c(-n5cnnn5)ccc(Cl)c3F)C4C(=O)Nc3ccc(C(=O)O)cc3)CC2)O1` (racemic) [Example 145], the Ki was below 5 nM.

`O=C(O)c1ccc(NC(=O)C2c3cccc(N4CCC5(CCNCC5)CC4)c3CCN2C(=O)/C=C/c2c(-n3cnnn3)ccc(Cl)c2F)cc1` (racemic) [Example 146] had an inhibition constant (Ki) below 5 nM.

In turn, `N#CC1CCN(c2cccc3c2CCN(C(=O)/C=C/c2c(-n4cnnn4)ccc(Cl)c2F)C3C(=O)Nc2ccc(C(=O)O)cc2)CC1` (racemic) [Example 147] displayed a Ki below 5 nM.

On to `O=C(O)c1ccc(NC(=O)C2c3cccc(N4CCC(O)CC4)c3CCN2C(=O)/C=C/c2c(-n3cnnn3)ccc(Cl)c2F)cc1` (racemic) [Example 148], for which the Ki was below 5 nM.

For `COC1CCN(c2cccc3c2CCN(C(=O)/C=C/c2c(-n4cnnn4)ccc(Cl)c2F)C3C(=O)Nc2ccc(C(=O)O)cc2)CC1` (racemic) [Example 150], the Ki was below 5 nM.

`CC1(C(=O)N2CCCC2)CCN(c2cccc3c2CCN(C(=O)/C=C/c2c(-n4cnnn4)ccc(Cl)c2F)C3C(=O)Nc2ccc(C(=O)O)cc2)CC1` (racemic) [Example 152] gave a Ki below 5 nM.

`CC(=O)c1ccc(Cl)c(F)c1/C=C/C(=O)N1CCc2c(cccc2N2CCC(N3CCCC3)CC2)C1C(=O)Nc1ccc(C(=O)OC(C)(C)C)cc1` (racemic) [Example 153]: the Ki lay within 5 to 10 nM.

As to `CC(=O)c1ccc(Cl)c(F)c1/C=C/C(=O)N1CCc2c(cccc2N2CCC(N3CCCC3)CC2)C1C(=O)Nc1ccc(C(=O)O)cc1` (racemic) [Example 154], the Ki was below 5 nM.

The molecule `O=C(O)c1ccc(NC(=O)C2c3cccc(N4CCC(N5CCCC5)CC4)c3CCN2C(=O)/C=C/c2cccc(Cl)c2)cc1` (racemic) [Example 156] registered an inhibitory constant (Ki) of 5 to 10 nM.

The molecule `O=C(O)c1ccc(NC(=O)C2c3cccc(N4CCC(N5CCCC5)CC4)c3CCN2C(=O)/C=C/c2cccc(Cl)c2Cl)cc1` (racemic) [Example 157] yielded a Ki of 5 to 10 nM.

Turning to `O=C(O)c1ccc(NC(=O)C2c3cccc(N4CCC(N5CCCC5)CC4)c3CCN2C(=O)/C=C/c2cc(Cl)ccc2C(F)F)cc1` (racemic) [Example 158], the Ki was below 5 nM.

Regarding `O=C(O)c1ccc(NC(=O)C2c3cccc(N4CCC(N5CCCC5)CC4)c3CCN2C(=O)/C=C/c2cc(Cl)ccc2OC(F)F)cc1` (racemic) [Example 159], the Ki is below 5 nM.

Turning to `CCOC(=O)c1ccc(NC(=O)C2c3cccc(N4CCC(N5CCCC5)CC4)c3CCN2C(=O)/C=C/c2c(C(C)=O)ccc(Cl)c2F)cc1` (racemic) [Example 160], the Ki was 5 to 10 nM.

Molecule `COc1ccc(Cl)c(F)c1/C=C/C(=O)N1CCc2c(cccc2N2CCC(N3CCCC3)CC2)C1C(=O)Nc1ccc(C(=O)O)cc1` (racemic) [Example 161] displayed a Ki below 5 nM.

`O=C(O)c1ccc(NC(=O)C2c3cccc(N4CCC(N5CCCC5)CC4)c3CCN2C(=O)/C=C/c2c(O)ccc(Cl)c2F)cc1` (racemic) [Example 162] returned a Ki below 5 nM.

On to `CCOC(=O)c1ccc(NC(=O)C2c3cccc(N4CCC(N5CCCC5)CC4)c3CCN2C(=O)/C=C/c2c(C#N)ccc(Cl)c2F)cc1` (racemic) [Example 165], for which the Ki was in the range of 5 to 10 nM.

Molecule `O=C(O)c1ccc(NC(=O)C2c3cccc(N4CCC(N5CCCC5)CC4)c3CCN2C(=O)/C=C/c2c(C(F)(F)F)ccc(Cl)c2F)cc1` (racemic) [Example 176] yielded a Ki below 5 nM.

The molecule `O=C(O)c1ccc(NC(=O)C2c3cccc(N4CCC(N5CCCC5)CC4)c3CCN2C(=O)/C=C/c2c(F)ccc(Cl)c2F)cc1` (racemic) [Example 180] yielded a Ki below 5 nM.

With `O=C(O)c1ccc(NC(=O)C2c3cccc(N4CCC(N5CCCC5)CC4)c3CCN2C(=O)/C=C/c2ccccc2F)cc1` (racemic) [Example 181], the Ki is 5 to 10 nM.

Molecule `O=C(O)c1ccc(NC(=O)C2c3cccc(N4CCC(N5CCCC5)CC4)c3CCN2C(=O)/C=C/c2c(F)ccc(F)c2F)cc1` (racemic) [Example 182] yielded a Ki of 5 to 10 nM.

`CC(=O)c1ccc(Cl)c(F)c1/C=C/C(=O)N1CCc2c(cccc2N2CCC(C(=O)N(C)C)CC2)C1C(=O)Nc1ccc(C(=O)O)cc1` (racemic) [Example 218] displayed a Ki below 5 nM.

In turn, `CC(=O)c1ccc(Cl)c(F)c1/C=C/C(=O)N1CCc2c(cccc2N2CCC(N3CCOCC3)CC2)C1C(=O)Nc1ccc(C(=O)O)cc1` (racemic) [Example 220] came in with a Ki below 5 nM.

The molecule `CN(C)C1CCN(c2cccc3c2CCN(C(=O)/C=C/c2c(C(F)(F)F)ccc(Cl)c2F)C3C(=O)Nc2ccc(C(=O)O)cc2)CC1` (racemic) [Example 223] gave a Ki below 5 nM.

The molecule `CN(C)C1CCN(c2cccc3c2CCN(C(=O)/C=C/c2c(F)cccc2C(F)(F)F)C3C(=O)Nc2ccc(C(=O)O)cc2)CC1` (racemic) [Example 224] returned a Ki of 5 to 10 nM.

Consider `O=C(O)c1ccc(NC(=O)C2c3cccc(N4CCS(=O)(=O)CC4)c3CCN2C(=O)/C=C/c2c(C(F)(F)F)ccc(Cl)c2F)cc1` (racemic) [Example 225], for which the Ki is below 5 nM.

In turn, `CCOC(=O)c1ccc(NC(=O)C2c3cccc(N4CCS(=O)(=O)CC4)c3CCN2C(=O)/C=C/c2c(-n3cnnn3)ccc(Cl)c2F)cc1` (racemic) [Example 226] yielded a Ki of 5 to 10 nM.

In the case of `O=C(O)c1ccc(NC(=O)C2c3cccc(N4CCC5(CCNC5)CC4)c3CCN2C(=O)/C=C/c2c(C(F)(F)F)ccc(Cl)c2F)cc1` (racemic) [Example 227], the Ki is below 5 nM.

`COCCCNC(=O)C1c2cccc(N3CCC(N4CCCC4)CC3)c2CCN1C(=O)/C=C/c1c(-n2cnnn2)ccc(Cl)c1F` (racemic) [Example 229] came in with a Ki of 100 to 500 nM.
